Activity calls are given as the source filed them. No cut-off for these calls is given here.
Key:
SH-SY5Y = experiment: Cytotoxicity against human SH-SY5Y cells assessed as reduction in cell viability incubated for 72 hrs by MTT assay; format: ADME, cell-based
Acetylcholinesterase = Acetylcholinesterase (Homo sapiens, UniProt P22303); experiment: Inhibition of human plasma AChE using acetylthiocholine iodide as substrate preincubated for 15 mins followed by substrate addition and measured after 10 mins by Ellman's method; format: cell-free
Acetylcholinesterase, sequence (P22303 whole entry): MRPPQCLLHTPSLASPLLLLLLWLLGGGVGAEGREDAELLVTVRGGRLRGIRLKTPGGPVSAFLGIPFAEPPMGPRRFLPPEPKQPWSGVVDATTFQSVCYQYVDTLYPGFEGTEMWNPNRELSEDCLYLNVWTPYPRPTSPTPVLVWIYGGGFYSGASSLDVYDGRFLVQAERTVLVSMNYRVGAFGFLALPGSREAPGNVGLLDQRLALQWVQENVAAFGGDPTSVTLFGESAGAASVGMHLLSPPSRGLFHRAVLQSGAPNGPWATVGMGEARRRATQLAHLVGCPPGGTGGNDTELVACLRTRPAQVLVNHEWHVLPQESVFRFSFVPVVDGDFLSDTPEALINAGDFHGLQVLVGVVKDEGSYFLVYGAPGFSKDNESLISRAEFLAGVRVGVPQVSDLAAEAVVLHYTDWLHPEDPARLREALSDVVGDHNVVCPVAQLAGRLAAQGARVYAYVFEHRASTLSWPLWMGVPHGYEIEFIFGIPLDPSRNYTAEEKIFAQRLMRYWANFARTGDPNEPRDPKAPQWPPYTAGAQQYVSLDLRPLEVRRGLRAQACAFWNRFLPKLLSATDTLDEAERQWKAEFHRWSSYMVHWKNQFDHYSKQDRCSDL

[1] = target: Sodium-dependent serotonin transporter (Homo sapiens, UniProt P31645); experiment: Displacement of [3H]paroxetine from human SERT expressed in human HEK293 cells incubated for 30 mins by liquid scintillation counting analysis; format: cell-based
Sodium-dependent serotonin transporter, sequence (P31645 whole entry): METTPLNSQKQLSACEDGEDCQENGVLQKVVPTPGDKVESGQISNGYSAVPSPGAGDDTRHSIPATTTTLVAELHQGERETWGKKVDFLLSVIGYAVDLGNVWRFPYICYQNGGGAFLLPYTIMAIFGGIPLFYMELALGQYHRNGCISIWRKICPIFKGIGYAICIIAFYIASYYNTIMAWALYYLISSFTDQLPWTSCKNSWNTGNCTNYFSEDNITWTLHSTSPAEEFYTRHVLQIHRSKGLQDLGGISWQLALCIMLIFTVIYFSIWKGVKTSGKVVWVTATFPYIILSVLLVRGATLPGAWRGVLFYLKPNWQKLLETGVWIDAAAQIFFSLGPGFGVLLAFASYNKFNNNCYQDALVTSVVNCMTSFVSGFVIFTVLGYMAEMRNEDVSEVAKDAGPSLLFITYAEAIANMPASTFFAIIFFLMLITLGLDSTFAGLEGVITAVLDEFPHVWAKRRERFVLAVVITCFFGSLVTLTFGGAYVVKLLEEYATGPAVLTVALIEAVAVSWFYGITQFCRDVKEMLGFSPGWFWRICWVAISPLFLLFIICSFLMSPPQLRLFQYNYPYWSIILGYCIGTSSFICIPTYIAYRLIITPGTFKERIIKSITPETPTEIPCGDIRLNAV

[2] = Solubility of compound at pH 7.4 at 1 to 100 uM; format: physicochemical; conditions: buffer, pH 7.4, 100 µM; dose 1-100 µM
HEK293 = experiment: Cytotoxicity against human HEK293 cells assessed as reduction in cell viability incubated for 72 hrs by MTT assay; format: ADME, cell-based; conditions: HEK293, 72 h
[3] = Reduction of beta-Amyloid40 level in mouse N2a cells transfected with human APP695 at 10 uM incubated for 16 hrs by ELISA relative to control; format: functional
N2a [4] = experiment: Decrease in APP-C99 in mouse N2a cells transfected with human APP695 by Western blot analysis; format: functional, cell-based
N2a [5] = experiment: Effect on APP in mouse N2a cells transfected with human APP695 by Western blot analysis; format: functional, cell-based

| Compound | IC50 (SH-SY5Y) | IC50 (Acetylcholinesterase) | IC50 [1] | solubility [2] | IC50 (HEK293) | inhibition at 10 µM [3] | inhibition (N2a [4]) | Activity (N2a [5]) |
| --- | --- | --- | --- | --- | --- | --- | --- | --- |
| O=C(CN1CCN(C(=O)c2ccccc2)CC1)N1CCN(CCCc2c[nH]c3ccccc23)CC1 | > 200 µM | > 50 µM | > 1000 µM | Soluble | > 200 µM |  |  |  |
| O=C(CN1CCN(C(=O)c2ccc(F)cc2)CC1)N1CCN(CCCc2c[nH]c3ccccc23)CC1 | 188 µM | 39.4 µM | > 1000 µM | Soluble | 141 µM |  |  |  |
| COc1ccc2[nH]cc(CCCN3CCN(C(=O)CN4CCN(C(=O)c5ccc(C)cc5)CC4)CC3)c2c1 | > 200 µM | > 50 µM | > 1000 µM | Soluble | 147 µM |  |  |  |
| CN(C)CCCC1(c2ccc(F)cc2)OCc2cc(C#N)ccc21 (stereo not drawn) [CITALOPRAM] | > 200 µM | 73.3 µM |  |  | > 200 µM |  |  |  |
| O=C(CN1CCN(C(=O)c2cccc(Cl)c2)CC1)N1CCN(CCCc2c[nH]c3ccc(F)cc23)CC1 | 59.8 µM | 18.4 µM | 149 µM | Soluble | 66.2 µM |  |  |  |
| Cc1ccc(C(=O)N2CCN(CC(=O)N3CCN(CCCc4c[nH]c5ccc(F)cc45)CC3)CC2)cc1 | 119 µM | 3.6 µM | 122 µM | Soluble | 141 µM |  |  |  |
| O=C(CN1CCN(C(=O)c2ccccc2)CC1)N1CCN(CCCc2c[nH]c3ccc(F)cc23)CC1 | 146 µM | > 50 µM | 320 µM | Soluble | 148 µM |  |  |  |
| Cc1ccc(C(=O)N2CCN(CC(=O)N3CCN(CCCc4c[nH]c5ccccc45)CC3)CC2)cc1 | > 200 µM | 29.4 µM | > 1000 µM | Soluble | 158 µM |  |  |  |
| O=C(CN1CCN(C(=O)c2ccc(Br)cc2)CC1)N1CCN(CCCc2c[nH]c3ccc(F)cc23)CC1 | 47.4 µM | 39.4 µM | 9.2 µM | Soluble | 60.5 µM |  |  |  |
| O=C(CN1CCN(C(=O)c2ccc(F)cc2)CC1)N1CCN(CCCc2c[nH]c3ccc(F)cc23)CC1 | 121 µM | 3.4 µM | 212 µM | Soluble | 102 µM |  |  |  |
| O=C(CN1CCN(C(=O)c2cccc(F)c2)CC1)N1CCN(CCCc2c[nH]c3ccc(F)cc23)CC1 | 169 µM | > 50 µM | 69 µM | Soluble | 83 µM |  |  |  |
| COc1ccc2[nH]cc(CCCN3CCN(C(=O)CN4CCN(C(=O)c5ccccc5)CC4)CC3)c2c1 | > 200 µM | > 50 µM | > 1000 µM | Soluble | > 200 µM | 37% |  |  |
| COc1cc2c(cc1OC)C(=O)C(CC1CCN(Cc3ccccc3)CC1)C2 (stereo not drawn) [DONEPEZIL] |  |  | > 1000 µM |  |  |  |  |  |
| O=C(CN1CCN(C(=O)c2ccccc2Br)CC1)N1CCN(CCCc2c[nH]c3ccc(F)cc23)CC1 | 79.1 µM | 33.3 µM | 1.9 µM | Soluble | 77.1 µM |  |  |  |
| O=C(CN1CCN(C(=O)c2cccc(Cl)c2)CC1)N1CCN(CCCc2c[nH]c3ccccc23)CC1 | 120 µM | 32.4 µM | > 1000 µM | Soluble | 99.1 µM |  |  |  |
| O=C(CN1CCN(C(=O)c2ccc(Cl)cc2)CC1)N1CCN(CCCc2c[nH]c3ccc(F)cc23)CC1 | 125 µM | 22.3 µM | 546 µM | Soluble | 44.5 µM |  |  |  |
| COc1ccc2[nH]cc(CCCN3CCN(C(=O)CN4CCN(C(=O)c5cccc(F)c5)CC4)CC3)c2c1 | > 200 µM | 37.3 µM | > 1000 µM | Soluble | > 200 µM |  |  |  |
| COc1cccc(C(=O)N2CCN(CC(=O)N3CCN(CCCc4c[nH]c5ccc(F)cc45)CC3)CC2)c1 | 79.4 µM | 19.4 µM | 83 µM | Soluble | 87.1 µM |  |  |  |

| Compound | IC50 (SH-SY5Y) | IC50 (Acetylcholinesterase) | IC50 [1] | solubility [2] | IC50 (HEK293) | inhibition at 10 µM [3] | inhibition (N2a [4]) | Activity (N2a [5]) |
| --- | --- | --- | --- | --- | --- | --- | --- | --- |
| COc1ccc2[nH]cc(CCCN3CCN(C(=O)CN4CCN(C(=O)c5ccccc5Br)CC4)CC3)c2c1 | 111 µM | > 50 µM | > 1000 µM | Soluble | 163 µM |  |  |  |
| COc1ccc2[nH]cc(CCCN3CCN(C(=O)CN4CCN(C(=O)c5ccc(Br)cc5)CC4)CC3)c2c1 | 150 µM | > 50 µM | > 1000 µM | Soluble | 80.5 µM |  |  |  |
| O=C(CN1CCN(C(=O)c2ccccc2F)CC1)N1CCN(CCCc2c[nH]c3ccccc23)CC1 | 82.6 µM | 20.2 µM | > 1000 µM | Soluble | 133 µM |  |  |  |
| COc1ccc2[nH]cc(CCCN3CCN(C(=O)CN4CCN(C(=O)c5cccc(Br)c5)CC4)CC3)c2c1 | 105 µM | > 50 µM | > 1000 µM | Soluble | 57 µM |  |  |  |
| O=C(CN1CCN(C(=O)c2cccc(Br)c2)CC1)N1CCN(CCCc2c[nH]c3ccc(F)cc23)CC1 | 71.6 µM | 37.3 µM | 181 µM | Soluble | 40.6 µM |  |  |  |
| COc1ccc2[nH]cc(CCCN3CCN(C(=O)CN4CCN(C(=O)c5cccc(Cl)c5)CC4)CC3)c2c1 | > 200 µM | > 50 µM | > 1000 µM | Soluble | 143 µM |  |  |  |
| COc1cccc(C(=O)N2CCN(CC(=O)N3CCN(CCCc4c[nH]c5ccccc45)CC3)CC2)c1 | > 200 µM | > 50 µM | > 1000 µM | Soluble | 143 µM |  |  |  |
| O=C(CN1CCN(C(=O)c2cccc(F)c2)CC1)N1CCN(CCCc2c[nH]c3ccccc23)CC1 | 165 µM | > 50 µM | > 1000 µM | Soluble | 182 µM |  |  |  |
| O=C(CN1CCN(C(=O)c2ccc(Br)cc2)CC1)N1CCN(CCCc2c[nH]c3ccccc23)CC1 | 59.3 µM | 35.7 µM | > 1000 µM | Soluble | 71.9 µM |  |  |  |
| COc1ccc(C(=O)N2CCN(CC(=O)N3CCN(CCCc4c[nH]c5ccccc45)CC3)CC2)cc1 | 148 µM | 25.1 µM | > 1000 µM | Soluble | 156 µM |  |  |  |
| COc1ccc2[nH]cc(CCCN3CCN(C(=O)CN4CCN(C(=O)c5ccc(F)cc5)CC4)CC3)c2c1 | > 200 µM | > 50 µM | > 1000 µM | Soluble | > 200 µM |  |  |  |
| COc1ccc(C(=O)N2CCN(CC(=O)N3CCN(CCCc4c[nH]c5ccc(F)cc45)CC3)CC2)cc1 | 161 µM | 14.4 µM | 133 µM | Soluble | 141 µM |  |  |  |
| COc1ccc(C(=O)N2CCN(CC(=O)N3CCN(CCCc4c[nH]c5ccc(OC)cc45)CC3)CC2)cc1 | 190 µM | > 50 µM | > 1000 µM | Soluble | 190 µM |  |  |  |
| COc1cccc(C(=O)N2CCN(CC(=O)N3CCN(CCCc4c[nH]c5ccc(OC)cc45)CC3)CC2)c1 | > 200 µM | > 50 µM | > 1000 µM | Soluble | > 200 µM |  |  |  |
| COc1ccc2[nH]cc(CCCN3CCN(C(=O)CN4CCN(C(=O)c5ccc(Cl)cc5)CC4)CC3)c2c1 | 158 µM | > 50 µM | > 1000 µM | Soluble | 117 µM |  |  |  |
| O=C(CN1CCN(C(=O)c2cccc(Br)c2)CC1)N1CCN(CCCc2c[nH]c3ccccc23)CC1 | 80.5 µM | 23 µM | > 1000 µM | Soluble | 80.7 µM | 50% | Active | inactive |
| O=C(CN1CCN(C(=O)c2ccc(Cl)cc2)CC1)N1CCN(CCCc2c[nH]c3ccccc23)CC1 | 139 µM | 35.2 µM | > 1000 µM | Soluble | 98.2 µM |  |  |  |

From ChEMBL document CHEMBL4765313, “Synthesis, in vitro evaluation and molecular docking of a new class of indolylpropyl benzamidopiperazines as dual AChE and SERT ligands for Alzheimer's disease” (Eur J Med Chem, 2020)
